This passage reports TGI and GI50 results from PubChem BioAssay (NCI).

Molecules are shown by their SMILES.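 Growth conditions: 96-well plates. Treatment: test compound, 48 hours, 5 concentrations. Analysis: linear interpolation between bracketing concentrations; unreached endpoints set to highest concentration. GI50 is the concentration that inhibits growth by half. TGI: concentration producing complete growth inhibition.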

The first assay deals with UO-31 renal. In words: NCI-60 cell line screen, 48 h.
`COc1cccc(/C=C2\CCC(C)(CN(C)C)C2=O)c1` (stereo unspecified) showed a TGI of over 100 µM.

Regarding `CCN(CC)CCNC(=O)c1cn2ncnc(Oc3ccc(NC(=O)Nc4ccc(Cl)c(C(F)(F)F)c4)c(F)c3)c2c1C`, the GI50 was 2.1 µM and the TGI worked out at 3.63 µM.

Regarding `Cc1cc2c(Br)cc(Br)c(O)c2nc1C(=O)c1ccccc1`, the TGI is over 82.1 µM.

On to `Cn1cc(-c2csc(-c3cn(C)c4ccccc34)n2)c2cnccc21`, for which the GI50 is 1.47 µM and the TGI was 3.16 µM.

In turn, `C=CCC1[C@@H](C(C)(C)C(C(C)=O)C(=O)C(=O)OC)OC(C(C)(C)C)N1C(=O)OC` (stereo partly specified) gave a TGI of over 100 µM.

In the case of `CCOC(=O)C(=O)Nc1ccccc1C(F)(F)F`, the TGI was over 100 µM.

`CCOC(=O)/C(=C/c1cccc(OC)c1)N(CC)CC`: the TGI was over 100 µM.

On to `Cn1c(/C(C#N)=C/c2ccc3ccccc3c2)cc2ccccc21`, for which the GI50 is 0.157 µM and the TGI was over 100 µM.

Turning to `c1ccc2nc3c(cc4ccccn43)nc2c1`, the GI50 was 6.25 µM and the TGI was over 100 µM.

On to `C=CCOC(=O)CC[N+]1=CCC(c2ccccc2)(c2ccccc2)O1`, for which the TGI is over 100 µM.

In the case of `COC(=O)/C(C#N)=C1\CCC(C(=O)OC)N1C` (stereo unspecified), the TGI is over 100 µM.

As for `c1ccc(Cn2cnc3ccc(-c4nc(-c5ccc6c(c5)ncn6C5CCCCC5)cn5ccnc45)cc32)cc1`, the GI50 is 1.72 µM and the TGI came out at 4.55 µM.

On to `CSc1c(C)c(C)nn1-c1ccccc1`, for which the TGI is over 100 µM.

The molecule `COc1cc2cnc3c4ccccc4ccc3c2cc1OC` displayed a TGI of over 100 µM.

The molecule `Cc1cc(N(CCC#N)CCC#N)ccc1/C=C1N=C(/C=C/c2ccccc2)OC(=O)N\1` displayed a TGI of over 100 µM.

The molecule `Cc1cn(C2OC(C)(CO)C(O)C2O)c(=O)[nH]c1=O` (stereo unspecified) returned a TGI of over 100 µM.

On to `CCN(CC)CC(=O)N1CCc2c([nH]c3ccccc23)C1c1cccnc1` (stereo unspecified), for which the TGI was over 100 µM.

Regarding `CCSc1nc(N)c2cn[nH]c2n1`, the GI50 was 49 µM and the TGI was over 100 µM.

As to `N=S(c1ccccc1)c1ccccc1[N+](=O)[O-]` (stereo unspecified), the TGI was found to be 29.5 µM.

On to `O=c1c2c3c(sc2n2c(-c4cc(-c5ccccc5)nn4-c4ccccc4)nnc2n1Cc1ccccc1)CCCC3`, for which the GI50 is over 100 µM and the TGI was over 100 µM.

Take `C[C@H]1[C@H](C)CC[C@]2(C(=O)NCCNCCN)CC[C@]3(C)C(=CC[C@@H]4[C@@]5(C)CCC(=O)C(C)(C)[C@@H]5CC[C@]43C)[C@H]12`: the GI50 was 1.53 µM and the TGI amounted to 2.86 µM.

Take `COC1OC(C)C(OCc2ccccc2)C(OS(=O)(=O)c2ccc(C)cc2)C1OS(=O)(=O)c1ccc(C)cc1` (stereo unspecified): the TGI was over 100 µM.

Consider `Cn1c2ccccc2c2c(=O)c3ccccc3[nH]c21`, for which the GI50 is 58.2 µM and the TGI was over 100 µM.

In a further assay the test system is SK-OV-3 ovarian. Kind of assay: NCI-60 cell line screen, 48 h.
As for `CCN(CC)CCNC(=O)c1cn2ncnc(Oc3ccc(NC(=O)Nc4ccc(Cl)c(C(F)(F)F)c4)c(F)c3)c2c1C`, the GI50 is 1.66 µM and the TGI stood at 3.26 µM.

For the molecule `Cn1cc(-c2csc(-c3cn(C)c4ccccc34)n2)c2cnccc21`, the GI50 is 2.52 µM and the TGI was 6.33 µM.

On to `C=CCC1[C@@H](C(C)(C)C(C(C)=O)C(=O)C(=O)OC)OC(C(C)(C)C)N1C(=O)OC` (stereo partly specified), for which the TGI is over 100 µM.

As for `CCOC(=O)C(=O)Nc1ccccc1C(F)(F)F`, the TGI was over 100 µM.

Molecule `CCOC(=O)/C(=C/c1cccc(OC)c1)N(CC)CC` showed a TGI of over 100 µM.

Consider `Cn1c(/C(C#N)=C/c2ccc3ccccc3c2)cc2ccccc21`, for which the GI50 is over 100 µM and the TGI is over 100 µM.

For the molecule `c1ccc2nc3c(cc4ccccn43)nc2c1`, the GI50 is 97.4 µM and the TGI was over 100 µM.

Molecule `C=CCOC(=O)CC[N+]1=CCC(c2ccccc2)(c2ccccc2)O1` had a TGI of over 100 µM.

Molecule `COC(=O)/C(C#N)=C1\CCC(C(=O)OC)N1C` (stereo unspecified) registered a TGI of over 100 µM.

`CSc1c(C)c(C)nn1-c1ccccc1` gave a TGI of over 100 µM.

In the case of `COc1cc2cnc3c4ccccc4ccc3c2cc1OC`, the TGI is over 100 µM.

`Cc1cc(N(CCC#N)CCC#N)ccc1/C=C1N=C(/C=C/c2ccccc2)OC(=O)N\1`: the TGI is over 100 µM.

`Cc1cn(C2OC(C)(CO)C(O)C2O)c(=O)[nH]c1=O` (stereo unspecified) registered a TGI of over 100 µM.

Molecule `CCN(CC)CC(=O)N1CCc2c([nH]c3ccccc23)C1c1cccnc1` (stereo unspecified) returned a TGI of over 100 µM.

With `CCSc1nc(N)c2cn[nH]c2n1`, the GI50 was 42.1 µM and the TGI was over 100 µM.

Turning to `N=S(c1ccccc1)c1ccccc1[N+](=O)[O-]` (stereo unspecified), the TGI turned out to be 84.6 µM.

As for `O=c1c2c3c(sc2n2c(-c4cc(-c5ccccc5)nn4-c4ccccc4)nnc2n1Cc1ccccc1)CCCC3`, the GI50 is over 100 µM and the TGI is over 100 µM.

`C[C@H]1[C@H](C)CC[C@]2(C(=O)NCCNCCN)CC[C@]3(C)C(=CC[C@@H]4[C@@]5(C)CCC(=O)C(C)(C)[C@@H]5CC[C@]43C)[C@H]12`: the GI50 was 6.91 µM and the TGI was found to be 33.2 µM.

Take `COC1OC(C)C(OCc2ccccc2)C(OS(=O)(=O)c2ccc(C)cc2)C1OS(=O)(=O)c1ccc(C)cc1` (stereo unspecified): the TGI is over 100 µM.

The test system of a further assay is NCI-H460 lung. Kind of assay: NCI-60 cell line screen, 48 h.
The molecule `COc1cccc(/C=C2\CCC(C)(CN(C)C)C2=O)c1` (stereo unspecified) displayed a TGI of over 100 µM.

Consider `CCN(CC)CCNC(=O)c1cn2ncnc(Oc3ccc(NC(=O)Nc4ccc(Cl)c(C(F)(F)F)c4)c(F)c3)c2c1C`, for which the GI50 was 1.99 µM and the TGI worked out at 3.87 µM.

Turning to `Cc1cc2c(Br)cc(Br)c(O)c2nc1C(=O)c1ccccc1`, the TGI turned out to be 30.7 µM.

Consider `Cn1cc(-c2csc(-c3cn(C)c4ccccc34)n2)c2cnccc21`, for which the GI50 is 1.79 µM and the TGI worked out at 3.49 µM.

Turning to `C=CCC1[C@@H](C(C)(C)C(C(C)=O)C(=O)C(=O)OC)OC(C(C)(C)C)N1C(=O)OC` (stereo partly specified), the TGI is over 100 µM.

For the molecule `CCOC(=O)C(=O)Nc1ccccc1C(F)(F)F`, the TGI is over 100 µM.
